Measured values as given in US20030068615A1, “Polypeptides that bind HIV gp120 and related nucleic acids, antibodies, compositions, and methods of use” (priority 1999, published 2003).
Values joined by “and” are separate entries in the source; they are usually repeats but may differ in a detail not shown here. Equal entries are not always repeated. Where two headings read alike, the source gives them in different places.

Molecular target: HIV-1LAI envelope gp120 (Human immunodeficiency virus type 1 group M subtype B, UniProt P03377)
Type: binding
Conditions: for Counts per 20′ Average-background: CCR5 18-mer scan; for Relative % of Control: mean of two syntheses and binding experiments ± average deviation, wild-type = 100%; for number of radioactive decays (counts) counted: human CD4 21-mer scan, empty control 2075
[1] = Panel B, 15-mers and 18-mers of CD4, empty control 575
[2] = radiolabeled HIV-1LAI gp120, background subtracted
[3] = CXCR4 18-mer scan, background subtracted, empty control 0
[4] = CXCR4 18-mer scan, empty control 412
[5] = Panel C, 15-mers and 18-mers of CD4, empty control 556
[6] = STRL33 18-mer scan, background subtracted, first of two count columns
[7] = STRL33 18-mer scan, background subtracted, second of two count columns
[8] = Panel D, 9-mers and 12-mers of CD4, empty control […]
[9] = Panel E, 9-mers and 12-mers of CD4, empty control 571
[10] = Panel F, sequential alanine replacements of CD4 polypeptides, duplicate series, empty control 569

## IEDSDTYICEVEDQK
[1]
  COUNTS of radiolabeled gp120 retained: 1143 counts

## FWAHYAAAQWDFGNTMCQ [CCR5 segment 85-]
[2]
  Counts per 20′ Average-background: 212 counts per 20′

## FQHIMVGLILPGIVILSC
[3]
  radioactive counts recorded in twenty minutes: 170 counts
[4]
  radioactive counts recorded in twenty minutes: 582 counts

## QVEFSFPLAFTVEKL
[5]
  COUNTS of radiolabeled gp120 retained: 2047 counts

## DSSQEEHQAFLQFSKVFL [STRL33 segment 17-34]
[6]
  radioactive counts recorded in twenty minutes: 869.5 counts
[7]
  radioactive counts recorded in twenty minutes: 2152.5 counts

## DTHLLQGQSLTLTLE
[1]
  COUNTS of radiolabeled gp120 retained: 1622 counts

## EVQLLVFGL
[8]
  COUNTS of radiolabeled gp120 retained: 2146 counts

## SDTYICEVE
[8]
  COUNTS of radiolabeled gp120 retained: 819 counts

## MDYQVSSPIYAINYYTSE [CCR5 (1-18) variant D11A]
CCR5 (1-18) alanine variants
  Relative % of Control: 63 ± 22%
CCR5 alanine mutant peptide, radiolabeled HIV-1LAI gp120
  percentage of binding of mutant polypeptide compared to wild-type polypeptide, gp120: 62.8%

## KKEGEQVEFSFPLAF
[5]
  COUNTS of radiolabeled gp120 retained: 1921 counts

## GEKFRNYLLVFFQKHIAK [CCR5 segment 301-]
[2]
  Counts per 20′ Average-background: 69 counts per 20′

## ASSIVYKKE
[9]
  COUNTS of radiolabeled gp120 retained: 600 counts

## HSSVSTESESSSFHSS
[3]
  radioactive counts recorded in twenty minutes: 103 counts
[4]
  radioactive counts recorded in twenty minutes: 515 counts

## FIFGFVGNMLVILILINC [CCR5 segment 41-58]
[2]
  Counts per 20′ Average-background: 343 counts per 20′

## QAKRMTWGKVTSLLIWVI
[6]
  radioactive counts recorded in twenty minutes: −71.5 counts
[7]
  radioactive counts recorded in twenty minutes: −31.5 counts

## VFGLTANSDTHL
[8]
  COUNTS of radiolabeled gp120 retained: 548 counts

## SIYTSDNYTEEMGSGDYD [CXCR4 segment 5-22]
[3]
  radioactive counts recorded in twenty minutes: 71 counts
[4]
  radioactive counts recorded in twenty minutes: 483 counts

## FIGLGIFFCVRCRHRRRQAER
  number of radioactive decays (counts) counted: 1900 counts

## KEEVQLLVFGLTANS
[1]
  COUNTS of radiolabeled gp120 retained: 3485 counts

## TCTVLQNQKKVEFKI
[5]
  COUNTS of radiolabeled gp120 retained: 510 counts

## DIVVLAFQKASS
[9]
  COUNTS of radiolabeled gp120 retained: 746 counts

## NKEAKVSKREKAVWVLNPEAG
  number of radioactive decays (counts) counted: 1735 counts

## EGEQVEFSFPLAFTVEKL
[5]
  COUNTS of radiolabeled gp120 retained: 2164 counts

## EEVQLLVFGLAANSD
[10]
  COUNTS of radiolabeled gp120 retained: 18863 counts and 19973 counts

## EEHQAFLQFSKVFLPCMY [STRL33 segment 21-38]
[6]
  radioactive counts recorded in twenty minutes: 2316.5 counts
[7]
  radioactive counts recorded in twenty minutes: 1819.5 counts

## TVEKLTGSGELWWQA
[5]
  COUNTS of radiolabeled gp120 retained: 550 counts

## VEFSFPLAFTVEKLT
[5]
  COUNTS of radiolabeled gp120 retained: 899 counts

## QWKSSEDNSKTFSASHNV
[6]
  radioactive counts recorded in twenty minutes: 464.5 counts
[7]
  radioactive counts recorded in twenty minutes: 533.5 counts

## DIGCLPYLGVSHQWKSSE
[6]
  radioactive counts recorded in twenty minutes: 17.5 counts
[7]
  radioactive counts recorded in twenty minutes: 78.5 counts

## SLKIIFLVMAVFLLTQMP [STRL33 segment 229-246]
[6]
  radioactive counts recorded in twenty minutes: 612.5 counts
[7]
  radioactive counts recorded in twenty minutes: 853.5 counts

## QGNFPLIIKNLK
[8]
  COUNTS of radiolabeled gp120 retained: 533 counts

## VSKREKAVWVLNPEAGMWQCL [human CD4 351-371]
  number of radioactive decays (counts) counted: 2034 counts

## THLLQGASLTLTLES
[10]
  COUNTS of radiolabeled gp120 retained: 1933 counts

## IVVLAFQKASSIVYKKEG
[5]
  COUNTS of radiolabeled gp120 retained: 531 counts

## IVILSCYCIIISKLSHSK
[3]
  radioactive counts recorded in twenty minutes: 277 counts
[4]
  radioactive counts recorded in twenty minutes: 689 counts

## EKVVYVGVWIPALLLTIP [CXCR4 segment 153-170]
[3]
  radioactive counts recorded in twenty minutes: 147 counts
[4]
  radioactive counts recorded in twenty minutes: 559 counts

## AFTVEKLTGSGE
[9]
  COUNTS of radiolabeled gp120 retained: 511 counts

## VLAFQKASSIVYKKE
[5]
  COUNTS of radiolabeled gp120 retained: 634 counts

## VLQNQKKVEFKI
[9]
  COUNTS of radiolabeled gp120 retained: 503 counts

## MEGIAIYTSDNYTEEMGS [CXCR4 (1-18) variant S5A]
CXCR4 (1-18) alanine variants
  Relative % of Control: 133 ± 5%

## DTYICEVEDQKEEVQLLV
[1]
  COUNTS of radiolabeled gp120 retained: 1648 counts

## AGGFQKHRSLKIIFLVMA
[6]
  radioactive counts recorded in twenty minutes: 340.5 counts
[7]
  radioactive counts recorded in twenty minutes: 260.5 counts
